Values quoted from earlier work in US20230390251A1, “METHODS OF TREATING RIBONUCLEOTIDE REDUCTASE-RELATED DISEASES WITH A RIBONUCLEOTIDE REDUCTASE INHIBITOR” (TAIHO PHARMACEUTICAL CO., LTD., priority 2020, published 2023).

Target: T1, Ribonucleotide reductase (RNR) (Homo sapiens, UniProt P23921+P31350)
T1 sequence (P23921 1-792): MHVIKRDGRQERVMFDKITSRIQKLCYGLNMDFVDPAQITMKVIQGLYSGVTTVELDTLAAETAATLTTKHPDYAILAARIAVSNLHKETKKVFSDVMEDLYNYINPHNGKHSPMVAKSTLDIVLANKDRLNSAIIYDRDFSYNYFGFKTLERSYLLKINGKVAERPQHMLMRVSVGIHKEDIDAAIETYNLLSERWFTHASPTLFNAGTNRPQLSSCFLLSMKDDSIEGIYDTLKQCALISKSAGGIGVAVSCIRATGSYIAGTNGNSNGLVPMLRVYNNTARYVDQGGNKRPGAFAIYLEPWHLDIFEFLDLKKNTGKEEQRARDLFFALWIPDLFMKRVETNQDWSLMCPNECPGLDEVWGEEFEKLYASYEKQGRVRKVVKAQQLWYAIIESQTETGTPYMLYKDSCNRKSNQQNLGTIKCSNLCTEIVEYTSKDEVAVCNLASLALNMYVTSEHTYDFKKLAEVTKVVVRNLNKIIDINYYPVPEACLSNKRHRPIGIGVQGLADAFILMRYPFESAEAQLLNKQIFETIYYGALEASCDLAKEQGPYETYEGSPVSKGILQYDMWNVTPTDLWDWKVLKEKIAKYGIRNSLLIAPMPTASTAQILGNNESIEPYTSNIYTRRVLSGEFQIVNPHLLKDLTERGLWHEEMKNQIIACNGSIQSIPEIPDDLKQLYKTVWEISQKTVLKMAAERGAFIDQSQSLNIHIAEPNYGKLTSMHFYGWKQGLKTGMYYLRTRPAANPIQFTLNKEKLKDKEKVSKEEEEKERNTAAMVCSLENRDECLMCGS
T1 sequence (P31350 1-389): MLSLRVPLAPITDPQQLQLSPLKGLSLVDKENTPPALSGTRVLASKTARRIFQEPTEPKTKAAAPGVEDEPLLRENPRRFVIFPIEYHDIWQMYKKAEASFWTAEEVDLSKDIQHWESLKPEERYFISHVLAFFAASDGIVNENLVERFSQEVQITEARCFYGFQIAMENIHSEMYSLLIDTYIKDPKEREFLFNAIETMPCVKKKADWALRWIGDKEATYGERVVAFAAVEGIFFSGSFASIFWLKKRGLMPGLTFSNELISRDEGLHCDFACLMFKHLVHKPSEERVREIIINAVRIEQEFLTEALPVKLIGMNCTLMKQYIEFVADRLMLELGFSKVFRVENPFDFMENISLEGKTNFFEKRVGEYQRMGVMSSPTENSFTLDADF
Conditions: from the literature (NPL 7; PL 1); cited from earlier work

In the case of `Cc1ccc(F)c([C@@H](C)[C@H](NS(=O)(=O)c2ccc(Cl)cc2C(N)=O)c2n[nH]c(=O)o2)c1C` [Compound A, 5-chloro-2-(N-((1S,2R)-2-(6-fluoro-2,3-dimethylphenyl)-1-(5-oxo-4,5-dihydro-1,3,4-oxadiazol-2-yl)propyl)sulfamoyl)benzamide], the RNR inhibitory activity is given as “potent”.
